Reference: patent US11090319B2, “Therapeutic uses of pharmaceutical compositions comprising cyclic boronic acid ester derivatives” (Melinta Subsidiary Corp., priority 2010, dated 2021)
Read-outs that look alike come from different tables or passages of the source.

Experiments:
[1] = system: strains expressing class A ESBLs; format: cell-based; details: tigemonam at 4 μg/mL; for MPC4 TEM-10 EC1009: strain EC1009 TEM-10; for MPC4 CTX-M-14 KP1005: strain KP1005 CTX-M-14; for MPC4 CTX-M-15 KP1009: strain KP1009 CTX-M-15; for MPC4 SHV-12 KP1010: strain KP1010 SHV-12; for MPC4 SHV-18 KP1012: strain KP1012 SHV-18; for MPC4 TEM-10 ec302: strain ec302 TEM-10; for MPC4 TEM-26 ec304: strain ec304 TEM-26; for MPC4 SHV-5 ec308: strain ec308 SHV-5
Protocol: Selected β-lactamase inhibitors were also tested for their ability to potentiate the monobactam tigemonam.

[2] = system: strains expressing KPC alone or in combination with additional beta-lactamases; assay: microbe, parasite or virus in culture; format: cell-based

Compound | MPC4 TEM-10 EC1009 [1] | MPC4 CTX-M-14 KP1005 [1] | MPC4 CTX-M-15 KP1009 [1] | MPC4 SHV-12 KP1010 [1] | MPC4 SHV-18 KP1012 [1] | MPC4 TEM-10 ec302 [1] | MPC4 TEM-26 ec304 [1] | MPC4 SHV-5 ec308 [1] | also measured
N[C@@H](C(=O)N[C@H]1CC[C@@H](CC(=O)O)OB1O)c1ccccc1 [Compound 9] | Z (MPC@4 of greater than 10 μg/mL) | Z (MPC@4 of greater than 10 μg/mL) | Z (MPC@4 of greater than 10 μg/mL) | Z (MPC@4 of greater than 10 μg/mL) | Z (MPC@4 of greater than 10 μg/mL) | Z (MPC@4 of greater than 10 μg/mL) | Z (MPC@4 of greater than 10 μg/mL) | Z (MPC@4 of greater than 10 μg/mL) | 
O=C(O)C[C@@H]1CC[C@H](NC(=O)NCc2ccccc2)B(O)O1 [Compound 18] | X (MPC@4 of less than 2 μg/mL) | X (MPC@4 of less than 2 μg/mL) | X (MPC@4 of less than 2 μg/mL) | X (MPC@4 of less than 2 μg/mL) | X (MPC@4 of less than 2 μg/mL) | Y (MPC@4 of 2 μg/mL to 10 μg/mL) | Y (MPC@4 of 2 μg/mL to 10 μg/mL) | Y (MPC@4 of 2 μg/mL to 10 μg/mL) | 
O=C(O)CC1C=CC[C@H](NC(=O)Cc2cccs2)B(O)O1 (stereo partly drawn) [Compound 64, 2-((3R)-2-hydroxy-3-(2-(thiophen-2-yl)acetamido)-2,3,4,7-tetrahydro-1,2-oxaborepin-7-yl)acetic acid] | Y (MPC@4 of 2 μg/mL to 10 μg/mL) | Z (MPC@4 of greater than 10 μg/mL) | Y (MPC@4 of 2 μg/mL to 10 μg/mL) | X (MPC@4 of less than 2 μg/mL) | Y (MPC@4 of 2 μg/mL to 10 μg/mL) | Z (MPC@4 of greater than 10 μg/mL) | Z (MPC@4 of greater than 10 μg/mL) | Y (MPC@4 of 2 μg/mL to 10 μg/mL) | 
O=C(O)C[C@@H]1C=CC[C@H](NC(=O)Cc2cccs2)B(O)O1 [Compound 67, 2-((3R,7R)-2-hydroxy-3-(2-(thiophen-2-yl)acetamido)-2,3,4,7-tetrahydro-1,2-oxaborepin-7-yl)acetic acid] | Z (MPC@4 of greater than 10 μg/mL) | Z (MPC@4 of greater than 10 μg/mL) | Y (MPC@4 of 2 μg/mL to 10 μg/mL) | Y (MPC@4 of 2 μg/mL to 10 μg/mL) | Y (MPC@4 of 2 μg/mL to 10 μg/mL) | Z (MPC@4 of greater than 10 μg/mL) | Z (MPC@4 of greater than 10 μg/mL) | Z (MPC@4 of greater than 10 μg/mL) | 
O=C(O)C[C@H]1C=CC[C@H](NC(=O)Cc2cccs2)B(O)O1 [Compound 68, 2-((3R,7S)-2-hydroxy-3-(2-(thiophen-2-yl)acetamido)-2,3,4,7-tetrahydro-1,2-oxaborepin-7-yl)acetic acid] | Y (MPC@4 of 2 μg/mL to 10 μg/mL) | Y (MPC@4 of 2 μg/mL to 10 μg/mL) | Y (MPC@4 of 2 μg/mL to 10 μg/mL) | X (MPC@4 of less than 2 μg/mL) | X (MPC@4 of less than 2 μg/mL) | Y (MPC@4 of 2 μg/mL to 10 μg/mL) | Y (MPC@4 of 2 μg/mL to 10 μg/mL) | Y (MPC@4 of 2 μg/mL to 10 μg/mL) | 
C[C@@H](O)[C@H]1C(=O)N2C(C(=O)O)=C(S[C@@H]3CN[C@H](CNS(N)(=O)=O)C3)[C@H](C)[C@H]12 [Doripenem] |  |  |  |  |  |  |  |  | MIC ([2]; Enterobacter cloacae, Enterobacter cloacae ECL1058, KPC-3, SHV-11, TEM-1, Compound 5 0 mg/L, read-out: MIC of Doripenem): > 4 µg/mL; MIC ([2]; Enterobacter cloacae, Enterobacter cloacae ECL1059, KPC-3, SHV-12, TEM-1, Compound 5 0 mg/L, read-out: MIC of Doripenem): 0.5 to 4 µg/mL; MIC ([2]; Escherichia coli, Escherichia coli EC1007, KPC-3, Compound 5 0 mg/L, read-out: MIC of Doripenem): 0.5 to 4 µg/mL; MIC ([2]; Klebsiella oxytoca, Klebsiella oxytoca KX1017, KPC-2, OXA-2, SHV-30, Compound 5 0 mg/L, read-out: MIC of Doripenem): 0.5 to 4 µg/mL; MIC ([2]; Klebsiella oxytoca, Klebsiella oxytoca KX1018, KPC-2, SHV-40, OXY-1, Compound 5 0 mg/L, read-out: MIC of Doripenem): 0.5 to 4 µg/mL; MIC ([2]; Klebsiella oxytoca, Klebsiella oxytoca KX1019, KPC-2 OXA-2, Compound 5 0 mg/L, read-out: MIC of Doripenem): 0.5 to 4 µg/mL; MIC ([2]; Klebsiella pneumoniae, Klebsiella pneumoniae KP 1004, KPC-2, Compound 5 0 mg/L, read-out: MIC of Doripenem): 0.5 to 4 µg/mL; MIC ([2]; Klebsiella pneumoniae, Klebsiella pneumoniae KP 1008, KPC-2, Compound 5 0 mg/L, read-out: MIC of Doripenem): 0.5 to 4 µg/mL; MIC ([2]; Klebsiella pneumoniae, Klebsiella pneumoniae KP1082, KPC-2 SHV-1, Compound 5 0 mg/L, read-out: MIC of Doripenem): 0.5 to 4 µg/mL; MIC ([2]; Klebsiella pneumoniae, Klebsiella pneumoniae KP1083, KPC-3, SHV-1, TEM-1, Compound 5 0 mg/L, read-out: MIC of Doripenem): > 4 µg/mL; MIC ([2]; Klebsiella pneumoniae, Klebsiella pneumoniae KP1084, KPC-3, SHV-11, TEM-1, Compound 5 0 mg/L, read-out: MIC of Doripenem): > 4 µg/mL; MIC ([2]; Klebsiella pneumoniae, Klebsiella pneumoniae KP 1087, KPC-2, CTX-M-15, SHV-11, TEM-1, Compound 5 0 mg/L, read-out: MIC of Doripenem): > 4 µg/mL; MIC ([2]; Klebsiella pneumoniae, Klebsiella pneumoniae KP1088, KPC-3, SHV-11, TEM-1, Compound 5 0 mg/L, read-out: MIC of Doripenem): 0.5 to 4 µg/mL
C[C@@H](O)[C@H]1C(=O)N2C(C(=O)O)=C(S[C@@H]3CN[C@H](C(=O)Nc4cccc(C(=O)O)c4)C3)[C@H](C)[C@H]12 [Ertapenem] |  |  |  |  |  |  |  |  | MIC ([2]; Enterobacter cloacae, Enterobacter cloacae ECL1058, KPC-3, SHV-11, TEM-1, Compound 5 0 mg/L, read-out: MIC of Ertapenem): > 4 µg/mL; MIC ([2]; Enterobacter cloacae, Enterobacter cloacae ECL1059, KPC-3, SHV-12, TEM-1, Compound 5 0 mg/L, read-out: MIC of Ertapenem): 0.5 to 4 µg/mL; MIC ([2]; Escherichia coli, Escherichia coli EC1007, KPC-3, Compound 5 0 mg/L, read-out: MIC of Ertapenem): > 4 µg/mL; MIC ([2]; Klebsiella oxytoca, Klebsiella oxytoca KX1017, KPC-2, OXA-2, SHV-30, Compound 5 0 mg/L, read-out: MIC of Ertapenem): > 4 µg/mL; MIC ([2]; Klebsiella oxytoca, Klebsiella oxytoca KX1018, KPC-2, SHV-40, OXY-1, Compound 5 0 mg/L, read-out: MIC of Ertapenem): > 4 µg/mL; MIC ([2]; Klebsiella oxytoca, Klebsiella oxytoca KX1019, KPC-2 OXA-2, Compound 5 0 mg/L, read-out: MIC of Ertapenem): > 4 µg/mL; MIC ([2]; Klebsiella pneumoniae, Klebsiella pneumoniae KP 1004, KPC-2, Compound 5 0 mg/L, read-out: MIC of Ertapenem): > 4 µg/mL; MIC ([2]; Klebsiella pneumoniae, Klebsiella pneumoniae KP 1008, KPC-2, Compound 5 0 mg/L, read-out: MIC of Ertapenem): > 4 µg/mL; MIC ([2]; Klebsiella pneumoniae, Klebsiella pneumoniae KP1082, KPC-2 SHV-1, Compound 5 0 mg/L, read-out: MIC of Ertapenem): 0.5 to 4 µg/mL; MIC ([2]; Klebsiella pneumoniae, Klebsiella pneumoniae KP1083, KPC-3, SHV-1, TEM-1, Compound 5 0 mg/L, read-out: MIC of Ertapenem): > 4 µg/mL; MIC ([2]; Klebsiella pneumoniae, Klebsiella pneumoniae KP1084, KPC-3, SHV-11, TEM-1, Compound 5 0 mg/L, read-out: MIC of Ertapenem): > 4 µg/mL; MIC ([2]; Klebsiella pneumoniae, Klebsiella pneumoniae KP 1087, KPC-2, CTX-M-15, SHV-11, TEM-1, Compound 5 0 mg/L, read-out: MIC of Ertapenem): > 4 µg/mL; MIC ([2]; Klebsiella pneumoniae, Klebsiella pneumoniae KP1088, KPC-3, SHV-11, TEM-1, Compound 5 0 mg/L, read-out: MIC of Ertapenem): > 4 µg/mL
C[C@@H](O)[C@H]1C(=O)N2C(C(=O)O)=C(SCCN=CN)C[C@H]12 [Imipenem] |  |  |  |  |  |  |  |  | MIC ([2]; Escherichia coli, read-out: MIC of Imipenem): > 4 µg/mL
C[C@@H](O)[C@H]1C(=O)N2C(C(=O)O)=C(S[C@@H]3CN[C@H](C(=O)N(C)C)C3)[C@H](C)[C@H]12 [Meropenem] |  |  |  |  |  |  |  |  | MIC ([2]; Enterobacter cloacae, read-out: MIC of Meropenem, Enterobacter cloacae ECL1058, KPC-3, SHV-11, TEM-1, Compound 5 0 mg/L): > 4 µg/mL; MIC ([2]; Enterobacter cloacae, read-out: MIC of Meropenem, Enterobacter cloacae ECL1059, KPC-3, SHV-12, TEM-1, Compound 5 0 mg/L): 0.5 to 4 µg/mL; MIC ([2]; Escherichia coli, read-out: MIC of Meropenem, Escherichia coli EC1007, KPC-3, Compound 5 0 mg/L): 0.5 to 4 µg/mL; MIC ([2]; Klebsiella oxytoca, read-out: MIC of Meropenem, Klebsiella oxytoca KX1017, KPC-2, OXA-2, SHV-30, Compound 5 0 mg/L): 0.5 to 4 µg/mL; MIC ([2]; Klebsiella oxytoca, read-out: MIC of Meropenem, Klebsiella oxytoca KX1018, KPC-2, SHV-40, OXY-1, Compound 5 0 mg/L): 0.5 to 4 µg/mL; MIC ([2]; Klebsiella oxytoca, read-out: MIC of Meropenem, Klebsiella oxytoca KX1019, KPC-2 OXA-2, Compound 5 0 mg/L): 0.5 to 4 µg/mL; MIC ([2]; Klebsiella pneumoniae, read-out: MIC of Meropenem, Klebsiella pneumoniae KP 1004, KP C-2, Compound 5 0 mg/L): > 4 µg/mL; MIC ([2]; Klebsiella pneumoniae, read-out: MIC of Meropenem, Klebsiella pneumoniae KP 1008, KPC-2, Compound 5 0 mg/L): 0.5 to 4 µg/mL; MIC ([2]; Klebsiella pneumoniae, read-out: MIC of Meropenem, Klebsiella pneumoniae KP1082, KPC-2 SHV-1, Compound 5 0 mg/L): 0.5 to 4 µg/mL; MIC ([2]; Klebsiella pneumoniae, read-out: MIC of Meropenem, Klebsiella pneumoniae KP1083, KPC-3, SHV-1, TEM-1, Compound 5 0 mg/L): > 4 µg/mL; MIC ([2]; Klebsiella pneumoniae, read-out: MIC of Meropenem, Klebsiella pneumoniae KP1084, KPC-3, SHV-11, TEM-1, Compound 5 0 mg/L): > 4 µg/mL; MIC ([2]; Klebsiella pneumoniae, read-out: MIC of Meropenem, Klebsiella pneumoniae KP 1087, KPC-2, CTX-M-15, SHV-11, TEM-1, Compound 5 0 mg/L): > 4 µg/mL; MIC ([2]; Klebsiella pneumoniae, read-out: MIC of Meropenem, Klebsiella pneumoniae KP1088, KPC-3, SHV-11, TEM-1, Compound 5 0 mg/L): > 4 µg/mL
